For this assay, the target named is Ubiquitin-conjugating enzyme E2 N (Homo sapiens) (UniProt P61088). Description: UBE2N binders by NMR, biophysical, purified protein (AID 1552). As to conditions: NMR binding to purified UBE2N.

Activity calls are given as the source filed them. How the calls were made is not given here.

Ubiquitin-conjugating enzyme E2 N (Homo sapiens), sequence (P61088 whole entry, looked up): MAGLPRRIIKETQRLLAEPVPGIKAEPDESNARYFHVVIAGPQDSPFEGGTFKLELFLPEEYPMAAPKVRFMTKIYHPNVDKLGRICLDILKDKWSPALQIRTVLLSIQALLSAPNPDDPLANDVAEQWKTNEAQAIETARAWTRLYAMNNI

`Fc1ccc(-c2n[nH]c(=S)n2CC2CCCO2)cc1` (centres undefined): the Kd (as a rule, the concentration at which binding is half-saturated) was > 4 mM (inactive). Consider `O=C1C(=O)N(CNc2ncccn2)c2ccccc21`, for which the Kd is > 4 mM (inactive). Regarding `N#Cc1cnn2c(C(F)(F)F)cc(C(F)(F)F)nc12`, the Kd is > 4 mM (inactive).

For `NC(=O)CN1C(=O)c2cccc3cccc1c23`, the Kd was > 4 mM (inactive). To `O=C(NS(=O)(=O)c1ccccc1)c1ccccc1F` belongs > 4 mM (inactive); to `O=C1CC(=O)N(c2ccccc2F)C(=S)N1`, > 4 mM (inactive); to `CCc1nnsc1C(=O)Nc1nccs1`, > 4 mM (inactive). For `C1CCN2C[C@@H]3C[C@H](CN4CCCC[C@@H]34)[C@H]2C1`, the Kd is > 4 mM (inactive). On to `CS(=O)(=O)N1CCN(c2ccccc2F)CC1`, for which the Kd was > 4 mM (inactive). Turning to `CC(=O)NC12CC3CC(C)(C1)CC(NC(C)=O)(C3)C2`, the Kd is > 4 mM (inactive). Take `COc1ccc(Cl)cc1NC(=O)C(N)=O`: the Kd was > 4 mM (inactive). To `O=C1COc2ccc(C(=O)c3ccccc3)cc2CN1` belongs > 4 mM (inactive); to `O=C(/C=C1\SC(=O)NC1=O)NCc1ccccc1`, > 4 mM (inactive); to `Cc1ccc(-n2nnnc2SCC(N)=O)c(C)c1`, > 4 mM (inactive). As for `Nc1cccc(S(=O)(=O)N2CCCC2)c1`, the Kd is > 4 mM (inactive).

Turning to `CC(C)(O)[C@@H]1[C@H]2OC(=O)[C@@H]1[C@]1(O)C[C@H]3O[C@]34C(=O)O[C@H]2[C@]14C`, the Kd was > 4 mM (inactive). Under `COC1=C(OC)C(=O)C(C/C=C(\C)CC/C=C(\C)CC/C=C(\C)CC/C=C(/C)CC/C=C(\C)CC/C=C(\C)CC/C=C(\C)CC/C=C(\C)CC/C=C(\C)CCC=C(C)C)=C(C)C1=O` stands > 4 mM (inactive); under `O=C(Nc1cnc2ccccn2c1=O)c1ccc(F)cc1`, > 4 mM (inactive). Consider `Cc1oc(-c2ccccc2)nc1CCO`, for which the Kd is > 4 mM (inactive).

As to `Cc1c(CCO)c(=O)n2c([nH]c3ccccc32)c1C#N`, the Kd is > 4 mM (inactive). As for `CC(=O)c1cccc(NC(=O)NN2CCOCC2)c1`, the Kd was > 4 mM (inactive). On to `NC(CSCSCC(N)C(=O)O)C(=O)O` (centres undefined), for which the Kd was > 4 mM (inactive). Turning to `COc1ccc(-c2c(C)n([O-])c(C)c(C)[n+]2=O)cc1`, the Kd was > 4 mM (inactive). As for `CCN1CCC(NC2CCC(O)CC2)CC1` (centres undefined), the Kd is > 4 mM (inactive). Take `c1cncc(C(N2CCOCC2)N2CCOCC2)c1`: the Kd is > 4 mM (inactive). For the molecule `Cc1cc(=O)cc(C)n1NC(N)=S`, the Kd was > 4 mM (inactive). For the molecule `Cc1csc2nc3ccccc3c(=O)n12`, the Kd is > 4 mM (inactive). On to `COc1cccc(NC(=O)c2cnn(C)c2Cl)c1`, for which the Kd was > 4 mM (inactive). Turning to `Cc1cc(SCC(=O)c2ccccc2)nc(=O)[nH]1`, the Kd is > 4 mM (inactive).

Consider `CC(=O)c1cnc(Nc2nc(C)c3ccccc3n2)nc1C`, for which the Kd was > 4 mM (inactive). As to `COc1ccc(-c2cc(=O)c3ccccc3o2)cc1`, the Kd was > 4 mM (inactive). Take `O=C1NC(=S)N/C1=C\c1cccc([N+](=O)[O-])c1`: the Kd is > 4 mM (inactive).

On to `CCC(C)OC1CCS(=O)(=O)C1` (centres undefined), for which the Kd was > 4 mM (inactive). `OCC1=Cc2ccccc2OC1`: the Kd is > 4 mM (inactive). For the molecule `O=C(NCc1cccs1)c1nn2cccnc2c1Cl`, the Kd was > 4 mM (inactive). Regarding `O=C1Nc2ccc(S(=O)(=O)NCCO)c3cccc1c23`, the Kd was > 4 mM (inactive). Take `COC(=O)N(c1ccccc1)P1(=S)OCCO1`: the Kd is > 4 mM (inactive). Consider `CN1C2CC3C[C@H]1C(O3)C2O` (some centres undefined), for which the Kd was > 4 mM (inactive).

Take `O=c1[nH]cc(N2CCCCC2)c(=O)[nH]1`: the Kd was > 4 mM (inactive). Regarding `O=C(O)C1C(=O)NCC1c1ccccc1` (centres undefined), the Kd is > 4 mM (inactive). Consider `CC(C)=CC(=O)Nc1ccccc1Br`, for which the Kd is > 4 mM (inactive).

Turning to `CC(C)=CCc1c2c(c(O)c3c(=O)c(O)c(-c4ccccc4)oc13)C=CC(C)(C)O2`, the Kd was > 4 mM (inactive).

Take `CCC[C@@H]1CCCCN1`: the Kd is > 4 mM (inactive).

On to `O=C(O)c1cccnc1N1CCOCC1`, for which the Kd is > 4 mM (inactive). To `CC(C)CCCC(C)[C@H]1CCC2C3CC[C@@H]4C[C@H](O)CC[C@]4(C)C3CC[C@@]21C` (some centres undefined) belongs > 4 mM (inactive); to `O=C(O)c1cc2ccccc2cn1`, > 4 mM (inactive); to `O=C(CSC1=NCCS1)N1CCc2ccccc21`, > 4 mM (inactive). Under `Cc1noc(C)c1C(=O)NCc1ccco1` stands > 4 mM (inactive). Under `COC(=O)c1cnccc1C(F)(F)F` stands > 4 mM (inactive); under `Cn1c(CSc2nc3ccccc3s2)n[nH]c1=S`, > 4 mM (inactive). Regarding `CSc1ccccc1NC(=O)c1ccoc1C`, the Kd is > 4 mM (inactive). On to `CSc1ccc(C2NC(=O)CCC2[N+](=O)[O-])cc1` (centres undefined), for which the Kd is > 4 mM (inactive). For `O=C(Nc1nnc(-c2cccnc2)o1)c1ccccc1F`, the Kd is > 4 mM (inactive). On to `Cc1c(-c2ccccc2)[n+](=O)c(-c2ccco2)c(C)n1[O-]`, for which the Kd was > 4 mM (inactive). For `C=CC(C1=CC(=O)C(OC)=CC1=O)c1ccccc1` (centres undefined), the Kd is > 4 mM (inactive). For the molecule `O=C(O)c1ncoc1-c1ccccc1`, the Kd was > 4 mM (inactive). In the case of `COc1c2ccccc2nc2occc12`, the Kd is > 4 mM (inactive). On to `COc1cc(O)ccc1C(C)=O`, for which the Kd is > 4 mM (inactive). `CC(=O)c1cc(C)ccc1O`: the Kd was > 4 mM (inactive).

Take `COc1cc2c3cc1Oc1c(OC)c(OC)cc4c1[C@@H](Cc1cccc(c1)Oc1ccc(c(O)c1)C[C@@H]3N(C)CC2)N(C)CC4`: the Kd was > 4 mM (inactive). For the molecule `CC(=O)CC1(O)C(=O)Nc2ccccc21` (centres undefined), the Kd was > 4 mM (inactive). Under `CC(C(N)=O)N1C(=O)c2ccccc2C1=O` (centres undefined) stands > 4 mM (inactive); under `NC(N)=Nc1nc2ccccc2o1`, > 4 mM (inactive); under `Cc1ccc(S(=O)(=O)CC(=O)N2CCCC2)cc1`, > 4 mM (inactive). Take `COc1c2c(cc3c1OCO3)C13C=C[C@H](OC)CC1N(C2)CC3O` (some centres undefined): the Kd is > 4 mM (inactive). For `O=C(O)C1=CCCNC1`, the Kd is > 4 mM (inactive). Regarding `O=C(CNC(=O)c1cccs1)NC1=NCCS1`, the Kd is > 4 mM (inactive). Under `CC(=O)O[C@H]1CCC2(C)C3=C(CCC2C1(C)C)[C@]1(C)CCC(C(C)CCC=C(C)C)[C@@]1(C)CC3` (some centres undefined) stands > 4 mM (inactive). As for `COC(=O)c1c[nH]c2ccccc12`, the Kd is > 4 mM (inactive). To `O=C(/C=C/c1ccccc1)c1ccc(O)cc1` belongs > 4 mM (inactive).

For `CC(C)=NNC(=O)C(=O)NC(C)(C)C`, the Kd is > 4 mM (inactive).

Consider `Cc1cc(C)n2nc(N)nc2n1`, for which the Kd is > 4 mM (inactive). For the molecule `O=C(CSc1ccccc1)N1CCC2(CC1)OCCO2`, the Kd is > 4 mM (inactive). With `Nc1c(S(=O)(=O)c2ccccc2)csc1C(=O)O`, the Kd is > 4 mM (inactive).

Source of the values: PubChem BioAssay AID1552 (Sanford-Burnham Center for Chemical Genomics, 2009).
